# Legend:
# Details in all cases: isolated protein; call rule not given here
# [1] = target: T1, Albumin (Homo sapiens, UniProt P02768); experiment: Binding affinity to human serum albumin by Benesi-Hildebrand method; type: ADME
# [2] = target: T1, Albumin; experiment: Binding affinity to 15 uM human serum albumin assessed as fluorescence distribution at 2.5 uM; type: ADME
# [3] = target: T1, Albumin; experiment: Binding affinity to human serum albumin by tryptophan fluorescence quenching method; type: ADME
# [4] = target: T1, Albumin; experiment: Binding affinity to 45 uM human serum albumin assessed as fluorescence distribution at 2.5 uM; type: ADME
# [5] = target: T1, Albumin; experiment: Binding affinity to human serum albumin intensity at 5 uM by fluorescence based drug displacement assay in presence of dansyl amide
# [6] = target: T1, Albumin; experiment: Binding affinity to 130 uM human serum albumin assessed as fluorescence distribution at 2.5 uM; type: ADME
# [7] = target: T1, Albumin; experiment: Binding affinity to human serum albumin intensity at 5 uM by fluorescence based drug displacement assay in presence of dansyl sarcosine
# T1 sequence (P02768 whole entry): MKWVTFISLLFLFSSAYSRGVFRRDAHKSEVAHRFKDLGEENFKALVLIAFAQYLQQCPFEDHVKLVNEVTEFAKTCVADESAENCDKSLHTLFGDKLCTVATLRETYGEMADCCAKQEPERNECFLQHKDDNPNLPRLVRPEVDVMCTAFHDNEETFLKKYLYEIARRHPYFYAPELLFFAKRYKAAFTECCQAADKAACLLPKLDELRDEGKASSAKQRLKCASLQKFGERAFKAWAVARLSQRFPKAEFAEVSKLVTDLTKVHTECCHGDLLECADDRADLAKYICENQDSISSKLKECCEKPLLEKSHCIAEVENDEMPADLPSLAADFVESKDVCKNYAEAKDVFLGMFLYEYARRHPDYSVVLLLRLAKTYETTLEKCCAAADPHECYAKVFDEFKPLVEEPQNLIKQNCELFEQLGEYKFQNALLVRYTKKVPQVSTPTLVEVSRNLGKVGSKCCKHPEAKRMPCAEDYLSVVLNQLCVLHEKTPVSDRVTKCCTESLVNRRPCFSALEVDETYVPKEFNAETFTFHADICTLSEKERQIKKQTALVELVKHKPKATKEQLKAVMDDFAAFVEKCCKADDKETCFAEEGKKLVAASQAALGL
Ka [1],Activity [2],Ka [3],Activity [4],Activity [5],Activity [6],Activity [7],Compound
4.8 ×10⁴ /M,2.9%,5 ×10⁴ /M,28.1%,Active,44.6%,Not Active,CC1(C)CC(OC(=O)c2cc3cc4c5c(c3oc2=O)CCCN5CCC4)CC(C)(C)N1O
,,9 ×10⁴ /M,,,,,Cc1nc2ccccc2c(C(=O)OC2CC(C)(C)N(O)C(C)(C)C2)c1O
